The subject of assay [1] is IL-17A induced secretion of IL-6 in primary human RASF cells. The assay can be described thus: Inhibition of IL17A induced secretion of IL6 in human rheumatoid arthritis synovial fibroblast (RASF) cells. The format is cell-based. As for the experimental part: This assay was used to determine the extent of inhibition of IL-17A induced secretion of IL-6 in primary human rheumatoid synovial fibroblast (RASF) cells by compounds of the invention. IL-17A is known to stimulate IL-6 production in RASF cells.
Low passage (passage 2-8) Primary human RASF cells (Asterand) were maintained in maintenance medium. Cells were detached from flasks by tryptic digestion and the cell density of the suspension determined. To each well of a 96 well culture plate was added 100 μL of seeding medium containing 50,000 cells/mL and the plate incubated overnight in a humidified 37° C., 5% CO2 incubator. The medium was replaced with fresh assay medium and cells were incubated for additional 5 hours in a humidified 37° C., 5% CO2 incubator prior to stimulation with recombinant human IL-17A (“rhIL-17A”). Prior to addition to cells, rhIL-17A (30 ng/mL) in assay medium was incubated with either DMSO alone, compounds, or anti-IL17 receptor antibody (3 μg/mL) for 1 hour at 37° C. The final concentration of DMSO in all samples was 0.25%. The final concentration of compounds varied from 0.03 μM to 25 μM.
Immediately before stimulation, cells were washed once with fresh assay medium. Then, 100 μL of the test samples was added in triplicate wells and the plates incubated for 20 hours in a humidified 37° C., 5% CO2 incubator. The assay medium from each well was collected and the IL-6 concentration in cell culture supernatants was determined by ELISA either immediately or after storage at −20° C.
A water-soluble tetrazolium salt (WST1) viability assay was immediately performed on the cells after the conditioned medium was collected using a WST1 reagent purchased from Roche. The concentration of IL-6 obtained from ELISA was normalized by the WST1 data.

Assay [2] addresses T1, biotinylated human IL-17 (binding to IL17R/Fc) (Homo sapiens, UniProt Q16552).
T1 construct: purchased R&D Systems 317-ILB (IL-17, biotinylated); 177-IR (IL17R/Fc)
T1 sequence (Q16552 20-155 limits assumed): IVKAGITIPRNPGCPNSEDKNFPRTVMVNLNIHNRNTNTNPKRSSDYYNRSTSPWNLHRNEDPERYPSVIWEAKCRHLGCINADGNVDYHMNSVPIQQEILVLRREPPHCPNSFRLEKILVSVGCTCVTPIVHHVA
Briefly: IL-17 competition ELISA II (captured IL17R/Fc, biotinylated IL-17). A digest of the protocol:
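Competition read-out: absorbance at 450 nm after streptavidin-HRP/TMB detection, fitted to a 4-parameter logistic model bounded by no-competitor and blank wells to give IC50. Compound was serially diluted 5-fold from 1 μM alongside 20 nM (stock) biotinylated IL-17 on IL17R/Fc (10 nM) captured via goat anti-human IgG, 30 min at room temperature.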
A general note: An ELISA detects its analyte on a solid surface through an enzyme-linked reagent.

Assay [3] deals with T2, recombinant human IL17a (binding to its receptor IL17R) (Homo sapiens, UniProt Q16552).
T2 construct: purchased R&D Systems 317-ILB (IL17a); 177-IR (IL17R/Fc)
T2 sequence (Q16552 20-155 limits assumed): T1 sequence (Q16552 20-155 limits assumed)
The assay can be described thus: IL-17 competition ELISA I (IL17a coated, IL17R/Fc binding). A digest of the protocol:
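Plates coated with 20 nM recombinant human IL17a received compound dilutions and 12 nM IL17R/Fc (final) for 30 min at room temperature. Bound receptor was detected with HRP anti-human Fc and TMB, read at 450 nm. IC50 came from a 4-parameter logistic fit between no-competitor and blank controls.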

Structures are written as SMILES. Read-outs that look alike come from different tables or passages of the source. Some results are limits rather than exact numbers.

Consider `O=C1CNC(=O)[C@@H](Cc2ccc(NC(=O)[C@H](Cc3ccccc3Cl)NC(=O)Cc3cccnc3)cc2)NC(=O)CC2(CCCC2)CC(=O)NCCCCCN1` [Compound 198], for which the IC50 (commonly the concentration needed to halve the response being measured) in assay [1] (Homo sapiens, Fibroblast) fell in the range of 1000 to 10000 nM.

Regarding `O=C1CNC(=O)[C@@H](Cc2ccc(NC(=O)[C@@H](NC(=O)c3cccc(O)c3)C3CCCCC3)cc2)NC(=O)CC2(CCCC2)CC(=O)NCCCCCN1` [Compound 376], the half-inhibitory concentration (IC50) is less than 100 nM in assay [2] and 100 to 1000 nM in assay [3].

With `CC(=O)N[C@H](C(=O)Nc1ccc(C[C@H]2NC(=O)CC3(CCCC3)CC(=O)NCCCCCNC(=O)CNC2=O)cc1)C1CCCCC1` [Compound 377], the IC50 in assay [2] is 100 to 1000 nM; in assay [3] it was less than 100 nM.

On to `O=C1CNC(=O)[C@@H](Cc2ccc(NC(=O)[C@@H](NC(=O)c3ccccc3)C3CCCCC3)cc2)NC(=O)CC2(CCCC2)CC(=O)NCCCCCN1` [Compound 379], for which the half-maximal inhibitory concentration (IC50) was less than 100 nM in assay [2] and 1000 to 10000 nM in assay [3].

Turning to `O=C1CNC(=O)[C@@H](Cc2ccc(NC(=O)[C@@H](NC(=O)Cc3ccc(F)cc3)C3CCCCC3)cc2)NC(=O)CC2(CCCC2)CC(=O)NCCCCCN1` [Compound 380], the IC50 in assay [1] (Homo sapiens, Fibroblast) fell in the range of 100 to 1000 nM.

For `O=C1CNC(=O)[C@@H](Cc2ccc(NC(=O)[C@@H](NC(=O)Cc3ccccn3)C3CCCCC3)cc2)NC(=O)CC2(CCCC2)CC(=O)NCCCCCN1` [Compound 381], the IC50 in assay [2] is less than 100 nM; in assay [3], 100 to 1000 nM.

Consider `O=C1CNC(=O)[C@@H](Cc2ccc(NC(=O)[C@@H](NC(=O)c3cccc(F)c3)C3CCCCC3)cc2)NC(=O)CC2(CCCC2)CC(=O)NCCCCCN1` [Compound 382], for which the concentration for half-maximal inhibition (IC50) in assay [2] was less than 100 nM; in assay [3], 100 to 1000 nM.

With `O=C1CNC(=O)[C@@H](Cc2ccc(NC(=O)[C@@H](NC(=O)c3cccnc3)C3CCCCC3)cc2)NC(=O)CC2(CCCC2)CC(=O)N[C@H](C(=O)O)CCCCN1` [Compound 384], the 50% inhibitory concentration (IC50) in assay [2] was less than 100 nM; in assay [3], 100 to 1000 nM.

Turning to `O=C1CNC(=O)[C@@H](Cc2ccc(NC(=O)[C@H](Cc3ccc(F)cc3Cl)NC(=O)Cc3ccccc3)cc2)NC(=O)CC2(CCCC2)CC(=O)NCCCCCN1` [Compound 386], the 50% inhibitory concentration (IC50) was less than 100 nM in assay [2] and 1000 to 10000 nM in assay [1] (Homo sapiens, Fibroblast).

`O=C1CNC(=O)[C@@H](Cc2ccc(NC(=O)[C@H](Cc3ccc(F)cc3Cl)NC(=O)Cc3ccc(F)cc3)cc2)NC(=O)CC2(CCCC2)CC(=O)NCCCCCN1` [Compound 388]: the IC50 in assay [2] was less than 100 nM; in assay [1] (Homo sapiens, Fibroblast), less than 100 nM.

Regarding `CN1CCNC(=O)CC2(CCCC2)CC(=O)N[C@H](Cc2ccc(NC(=O)[C@H](Cc3ccccc3Cl)NC(=O)Cc3ccccc3)cc2)C(=O)NCC1` [Compound 399], the half-maximal inhibitory concentration (IC50) was less than 100 nM in assay [2] and 1000 to 10000 nM in assay [1] (Homo sapiens, Fibroblast).

For the molecule `O=C1CNC(=O)[C@@H](Cc2ccc(NC(=O)[C@H](Cc3ccccc3Cl)NC(=O)Cc3ccc(NC(=O)CNCc4ccccc4)cc3)cc2)NC(=O)CC2(CCCC2)CC(=O)NCCCCCN1` [Compound 405], the IC50 is less than 100 nM in assay [2] and 100 to 1000 nM in assay [1] (Homo sapiens, Fibroblast).

Regarding `O=C1CC2(CCCC2)CC(=O)NC(Cc2ccc(NC(=O)C(Cc3ccccc3Cl)NC(=O)c3cccnc3)cc2)C(=O)NCCOCCOCCN1` (stereo not shown) [Compound 406], the IC50 in assay [2] is less than 100 nM; in assay [1] it was 1000 to 10000 nM.

For the molecule `O=C1CNC(=O)[C@@H](Cc2ccc(NC(=O)[C@H](Cc3ccc(F)cc3Cl)NC(=O)Cc3ccc(CO)cc3)cc2)NC(=O)CC2(CCCC2)CC(=O)NCCCCCN1` [Compound 408], the half-maximal inhibitory concentration (IC50) in assay [2] was less than 100 nM; in assay [1] (Homo sapiens, Fibroblast), 100 to 1000 nM.

`CN1C(=O)CC2(CCCC2)CC(=O)NCCCCCNC(=O)CNC(=O)[C@H]1Cc1ccc(NC(=O)[C@H](Cc2ccccc2Cl)NC(=O)Cc2ccccc2)cc1` [Compound 413]: the IC50 is less than 100 nM in assay [2] and greater than 10000 nM in assay [1] (Homo sapiens, Fibroblast).

In the case of `O=C1CC2(CCCC2)CC(=O)N[C@H](Cc2ccc(NC(=O)[C@@H](NC(=O)Cc3ccc(F)cc3)C3CCCCC3)cc2)C(=O)NCCOCCOCCN1` [Compound 424], the 50% inhibitory concentration (IC50) was less than 100 nM in assay [2] and greater than 10000 nM in assay [1] (Homo sapiens, Fibroblast).

In turn, `Cc1ccccc1C[C@H](NC(=O)C(F)(F)c1ccccc1)C(=O)Nc1ccc(C[C@H]2NC(=O)CC3(CCCC3)CC(=O)N(C)CCCCCNC(=O)[C@@H](C)NC2=O)cc1` [Compound 512] came in with an IC50 in assay [1] (Homo sapiens, Fibroblast) of 100 to 1000 nM.

Source of the values: patent US9284283B2, “Macrocyclic compounds for modulating IL-17” (ENSEMBLE THERAPEUTICS CORPORATION, priority 2012, dated 2016).
